Patent publication US20150190470A1, “COMBINATION THERAPY” (TETRALOGIC PHARMACEUTICALS CORPORATION, priority 2012, published 2015)

Legend:
[1] = human, in vivo
From the text: In general, Compound 15 can be administered once, twice or three times per week for one to four weeks (or longer). In some situations a treatment interval may be followed by a rest interval. A suitable rest interval includes but is not limited to one week. […] It should be understood that the “on” weeks are consecutive weeks, i.e., two consecutive weeks on drug, three consecutive weeks on drug, and four consecutive weeks (or more) on drug.

[2] = tested on: MDA-MB-231 cells (human breast cancer), Smac mimetic resistant variant; experiment: Viability of MDA-MB-231 cells (MTT) with PBMC culture supernatants and Compound 15; assay type: cell-based; settings: 1 μM Compound 15 with supernatant of 1 ng/mL GM-CSF-treated Donor 1 PBMC culture, 24 hr, FIG. 3(a)
Method: MDA-MB-231 cells (human breast cancer) were seeded into 96-well plates at a density of 10,000 cells/well and allowed to adhere overnight. Next day, culture supernatants from untreated Donor 1 PBMC culture or 1 ng/mL GM-CSF-treated Donor 1 PBMC culture was added to MDA-MB-231 cells in the presence or absence of 1 μM Compound 15, 1 μM Compound 15 plus TNFα neutralizing antibody (R&D Systems #MAB610, 10 μg/mL), 1 μM Compound 15 plus TRAIL neutralizing antibodies (R&D Systems #374-DR and 631-T2, 100 ng/ml each) or 1 μM Compound 15 plus both TNFα and TRAIL neutralizing antibodies. All antibodies were tested in the absence of Compound 15 as control. Viability of MDA-MB-231 cells was measured following 24 hr incubation at 37° C./5% CO2 by MTT (3-(4,5-dimethylthiazol-2-yl)-2,5-diphenyltetrazolium bromide) assay substantially as described in Hansen, M. B., Nielsen, S. E., and Berg, K. (1989) J. Immunol. Methods 119, 203-210.
In an extension study, substantially the same experiment was carried out with culture supernatants from two additional donors, Donors 3 and 4, excluding treatment with the combination of anti-TNFα and anti-TRAIL antibodies.

RenCa cells = experiment: Survival of BALB/c mice inoculated with RenCa cells; assay type: in vivo; settings: female BALB/c mice, RenCa cells on each flank; qdX5 each week for 4 weeks; birinapant 15 mg/Kg IP, mGM-CSF 10 mg IP
Method: 40 female BALB/c mice (10 per treatment group) were inoculated with 1×10^5 RenCa cells on each flank. The mice were subsequently treated qdX5 each week for 4 consecutive weeks with birinapant, mGM-CSF, birinapant and mGM-CSF, or a vehicle control. Each dose of birinapant was 15 mg/Kg IP and each dose of mGM-CSF was 10 mg IP.

[3] = tested on: human peripheral blood mononuclear cells (PBMCs); experiment: Ex-vivo treatment of PBMCs with GM-CSF; cytokine concentration in culture supernatants by ELISA; assay type: cell-based
Method: Peripheral blood mononuclear cells (PBMC) were isolated from two healthy male donors using BD Vacutainer® CPT cell preparation tubes (Becton, Dickinson and Company, Franklin Lakes N.J. 07417, REF 362753) according to manufacturer's protocol. After isolation, mononuclear cell layer was removed from CPT tube and transferred to a sterile 15 mL centrifuge tube. Cells were washed by adding 10 mL of Dulbecco's Modified Eagle Medium (DMEM) containing 10% fetal bovine serum (FBS) to cells, tube was inverted several times to mix and cells were pelleted by centrifugation at 1500 RPM for 10 minutes. Following centrifugation, media was removed and cells were resuspended in DMEM containing 10% FBS to a concentration of 1×10^6 cells/mL. Cells were next seeded into 6-well dishes at 1×10^6 cells/mL in 2 mL/well. Following 2 hr incubation at 37° C./5% CO2, human recombinant GM-CSF (R&D Systems, Minneapolis Minn. 55413, Catalog # #215-GM) was added to cells at indicated concentrations. Following overnight incubation at 37° C./5% CO2, media was collected into sterile 15 mL centrifuge tubes and cells were removed by centrifugation at 1500 RPM for 10 minutes. Media was transferred to new, sterile tubes and frozen at −80° C. until use.
TNFα concentration in culture supernatants was determined by ELISA (BD OptEIA TNF kit II) according to manufacturer's recommendations. Absorbance values were analyzed using GraphPad Prism linear regression analysis and reported as pg/mL TNFα.
In a first extension of the preceding study, substantially the same experiment was carried out with PBMCs from two additional donors, Donors 3 and 4. In this first extension study, cells were treated with GM-CSF, GM-CSF+1.0 uM birinapant.
In a second extension study, substantially the same experiment was subsequently carried out with new PBMC culture supernatants from Donors 1, 3, and 4.

[4] = tested on: Mouse renal carcinoma (RenCa) cells; experiment: Viability of RenCa cells (MTT) with birinapant plus TNFα or mouse GM-CSF; assay type: cell-based; settings: in combination with birinapant, TNFα 0.000001 to 100 ng/mL or mouse GM-CSF 0.001 to 10 ng/mL, 24 h
Method: Mouse renal carcinoma (RenCa) cells were seeded into 96-well plates at a density of 10,000 cells/well and allowed to adhere overnight. On the next day, birinapant alone or in combination with varying concentrations of TNFα (R&D systems) (0.000001 to 100 ng/mL) or mouse GM-CSF (R&D Systems) (0.001 to 10 ng/mL) were added. Following a 24 h incubation, viability was assessed by MTT assay.

## CC[C@H](NC(=O)[C@H](C)NC)C(=O)N1C[C@@H](O)C[C@H]1Cc1c(-c2[nH]c3cc(F)ccc3c2C[C@@H]2C[C@H](O)CN2C(=O)[C@H](CC)NC(=O)[C@H](C)NC)[nH]c2cc(F)ccc12 [Compound 15, N-{1S-[2R-(6,6′-Difluoro-3′-{4S-hydroxy-1-[2S-(2S-methylamino-propionylamino)-butyryl]-pyrrolidin-2R-ylmethyl}-1H,1′H-[2,2′]biindolyl-3-ylmethyl)-4S-hydroxy-pyrrolidine-1-carbonyl]-propyl}-2S-methylamino-propionamide]
[1]
  half-life in the patient: long half-life
[2]
  viability of MDA-MB-231 cells / induction of apoptosis: sensitization of MDA-MB-231 Smac mimetic resistant variant to Compound 15
RenCa cells
  time to which 50% of mice survived: approximately 40 days

## GM-CSF: Granulocyte macrophage colony-stimulating factor; human recombinant GM-CSF (R&D Systems) in Example 1
[3]; Donors 1 and 2, overnight incubation with GM-CSF, ELISA, FIGS. 1(a),(b)
  expression and secretion of TNFα by PBMCs: increased expression and secretion of TNFα
[3]; first extension study, Donors 3 and 4, FIGS. 1(c),(d)
  expression and secretion of TNFα by PBMCs: increased expression and secretion of TNFα
[3]; second extension study, new PBMC culture supernatants from Donors 1, 3 and 4, FIGS. 2(a)-(c)
  expression and secretion of TNFα by PBMCs: increased expression and secretion of TNFα
[4]
  RenCa cell viability: unaffected

## TNFα [reference compound]
[4]
  RenCa cell viability: decreased in direct relation to the concentration of TNFα

B1: mGM-CSF: mouse GM-CSF (R&D Systems) (protein, UniProt P01587 18-141, looked up)
Granulocyte-macrophage …: APTRSPITVTRPWKHVEAIKEALNLLDDMPVTLNEEVEVVSNEFSFKKLTCVQTRLKIFEQGLRGNFTKLKGALNMTASYYQTYCPPTPETDCETQVTTYADFIDSLKTFLTDIPFECKKPGQK
RenCa cells
  time to which 50% of mice survived: approximately 30 days
